What was measured:
Assay in all cases: relative viability (nuclei count vs DMSO), 5 days (fraction); higher = more cells survive
Carfilzomib + Navitoclax = compound: CC(C)C[C@H](NC(=O)[C@H](CCc1ccccc1)NC(=O)CN1CCOCC1)C(=O)N[C@@H](Cc1ccccc1)C(=O)N[C@@H](CC(C)C)C(=O)[C@@]1(C)CO1 [Carfilzomib] + CC1(C)CCC(c2ccc(Cl)cc2)=C(CN2CCN(c3ccc(C(=O)NS(=O)(=O)c4ccc(N[C@H](CCN5CCOCC5)CSc5ccccc5)c(S(=O)(=O)C(F)(F)F)c4)cc3)CC2)C1 [Navitoclax] (partner 0.5 µM)
How it was run: (§1)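 A single step with final 0.05% Triton X-100, 1% formaldehyde and 1 ug/ml Hoechst fixed the cells and stained nuclei 5 days after treatment. Lung cancer cell lines in 1536-well plates had been treated by pin tool the day after seeding with one drug alone or a fixed anchor-drug dose plus five library-drug doses (not always all listed) in √10 steps, and nuclei were counted on 4× images. Relative viability is the ratio of nuclei in treated wells to nuclei in vehicle wells, taken as the median of duplicate plates.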

Crizotinib + Bortezomib = compound: C[C@@H](Oc1cc(-c2cnn(C3CCNCC3)c2)cnc1N)c1c(Cl)ccc(F)c1Cl [Crizotinib] + CC(C)C[C@H](NC(=O)[C@H](Cc1ccccc1)NC(=O)c1cnccn1)B(O)O [Bortezomib] (partner 0.002 µM)
How it was run: as §1

Olaparib + Lapatinib = compound: O=C(c1cc(Cc2n[nH]c(=O)c3ccccc23)ccc1F)N1CCN(C(=O)C2CC2)CC1 [Olaparib] + CS(=O)(=O)CCNCc1ccc(-c2ccc3ncnc(Nc4ccc(OCc5cccc(F)c5)c(Cl)c4)c3c2)o1 [Lapatinib] (partner 2 µM)
How it was run: as §1

Crizotinib + AZD7762 = compound: C[C@@H](Oc1cc(-c2cnn(C3CCNCC3)c2)cnc1N)c1c(Cl)ccc(F)c1Cl [Crizotinib] + NC(=O)Nc1cc(-c2cccc(F)c2)sc1C(=O)N[C@H]1CCCNC1 [AZD7762] (partner 0.2 µM)
How it was run: as §1

Cell Line	relative viability (Carfilzomib + Navitoclax; first compound 0.001 µM)	relative viability (Carfilzomib + Navitoclax; first compound 0.003162 µM)	relative viability (Carfilzomib + Navitoclax; first compound 0.01 µM)	relative viability (Carfilzomib + Navitoclax; first compound 0.03162 µM)	relative viability (Carfilzomib + Navitoclax; first compound 0.1 µM)	relative viability (Crizotinib + Bortezomib; first compound 0.01 µM)	relative viability (Crizotinib + Bortezomib; first compound 0.03162 µM)	relative viability (Crizotinib + Bortezomib; first compound 0.1 µM)	relative viability (Crizotinib + Bortezomib; first compound 0.3162 µM)	relative viability (Crizotinib + Bortezomib; first compound 1 µM)	relative viability (Olaparib + Lapatinib; first compound 0.08 µM)	relative viability (Olaparib + Lapatinib; first compound 0.253 µM)	relative viability (Olaparib + Lapatinib; first compound 2.53 µM)	relative viability (Olaparib + Lapatinib; first compound 8 µM)	relative viability (Crizotinib + AZD7762; first compound 0.01 µM)	relative viability (Crizotinib + AZD7762; first compound 0.03162 µM)	relative viability (Crizotinib + AZD7762; first compound 0.1 µM)	relative viability (Crizotinib + AZD7762; first compound 0.3162 µM)	relative viability (Crizotinib + AZD7762; first compound 1 µM)
EBC-1	0.415	0.288	0.184	0.13	0.139	0.599	0.564	0.28	0.231	0.259	0.247	0.235	0.236	0.201					
EKVX	0.992	1	1.21	0.427	0.346	1.06	1.05	0.959	0.934	1.1	0.228	0.162	0.209	0.213	0.67	0.742	0.647	0.685	0.726
EMC-BAC-2	1.15	1.21	1.22	1.12	0.527	1.04	1.08	0.997	1	1.03	0.921	0.88	0.852	0.758	1.07	1.1	1.05		1.08
EPLC-272H	1.07	1.15	0.839	0.09	0.0751	0.87	0.865	1.03	0.912		1.16	0.848	1.08	1.01	0.209	0.19	0.263		0.35
H3255	0.676	0.63	0.663	0.37	0.151	0.736	0.925	0.814	0.681	0.659	0.229	0.245	0.256	0.219	0.833	0.88	0.819		0.923
HARA	1.1	1.14	1.21	0.0941	0.0841	1.02	1.08	1.11	1.13	1.12	0.836	0.725	0.699	0.763	0.216	0.274	0.679	0.382	0.516
HCC-15	0.667	0.728	0.762	0.423	0.148	0.916		1.06	0.826	0.891	0.999	0.752	0.808	0.765	1.07	0.721	1.2		1.14
HCC-44	0.94	1.01	1	0.829	0.261	0.903	0.751	0.936	0.773	0.952	1.02	0.946	1.11	1.05	0.971	0.997	1.04	0.936	1.02
HCC-78	0.546	0.925	0.748	0.503	0.179	0.437	0.466	0.472	0.399	0.447	0.853	0.522	1.01	0.666	0.657	0.686	0.618	0.572	0.487

From the supplement of paper PMC10307832
